# From patent publication US9839674B2, “Methods of inducing indolamine 2,3—dioxygenase (IDO)” (IDOGEN AB, priority 2010, dated 2017)
# Columns and labels:
# [1] = system: IDO1 expression in THP-1 cells; experiment: IDO1 expression in THP-1 cells by PCR / quantitative real-time PCR; type: cell-based, human; details: for IDO1 expression (relative value): zebularine 100 uM, interferon gamma 200 IU/ml, alone or both together, FIG. 1
# Protocol: (§1) THP-1 (ATCC: TIB-202) is a human monocytic cell line that originates from an acute monocytic leukemia. It has the phenotype of monocytes but can be differentiated to a more dendritic phenotype. In the current study, the THP-1 cells were in vitro passaged in RPMI 1640 medium supplemented with 5% or 10% FCS, 10 mM Hepes, 1 mM Sodium pyruvate, and 50 ug/ml gentamicin (R5 or R10 medium respectively). The cell density was adjusted to 200 000 cells per ml, and the cultures were incubated for four to seven days at 37° C. with 10% CO2 in a humidified incubator. The substance, or combination of substances, being studied, were added to the medium at specified time points and in the case of IFN-gamma removed from medium as indicated. 96-168 hours after initiation of treatment, the IDO expression was assessed by PCR or by Quantitative PCR (Roche). RNA was extracted from cells cultured in flasks or six-well plates using Trizol reagent according to Invitrogen's protocol. Residual DNA was removed through Rnase free DNase (Roche Applied Science) treatment. Quality and quantity of the isolated RNA was measured by spectrophotometer and gel electrophoresis.
# Quantitative real-time PCR analyses (qRT-PCR) were performed using Super-Script III Platinum Two-Step qRT-PCR Kit with SYBR Green (Invitrogen). A total of 100-500 ng total RNA was used in a 20 ul RT reaction using a mixture of polydT and random hexamer primers. The cDNA obtained was diluted to a total volume of 80 ul and stored at −20° C. The primer sequences for the different genes were designed using Gene Fisher software support (G. Giegerich, F. Meyer, C. Schleiermacher, ISMB-96). The primers used for amplification of the IDO gene were: Forward: SEQ ID NO: 5—5′-[…]-3′, Primer sequences, Reverse: SEQ ID NO: 6—TTTCACA-CAGGCGTCATAAGCT-3′.
# Hypoxanthine guanine phosphoribosyl transferase (HPRT) HPRT Forward: SEQ ID NO: 7—5′-[…]-3′, HPRT Reverse: SEQ ID NO: 8—5′-[…]-3′ according to the cDNA sequence, were used. The qRT-PCR was performed in 20 ul reaction consisting of 2 ul diluted cDNA (12.5 ng), 0.3 uM of each primer, 1 ul bovine serum albumin (50 ug/ml), and 10 ul Platinum SYBR Green qRT-PCR superMix-UDG. The amplification of IDO was carried out in a Light Cycler (Roche Molecular Biochemicals) with the following thermal profile: Platinum SYBR Green qRT-PCR superMix-UDG incubation at 50° C. for 2 min, then denaturing at 95° C. for 5 min, followed by 45 cycles at 94° C. for 2 s, 58° C. for 10 s, and 72° C. for 14 s. The amplification of HPRT was carried out as follows, UDG incubation at 50° C. for 2 min, denaturing at 95° C. for 5 min, followed by 45 cycles at 94° C. for 2 s, 55° C. for 10 s, and 72° C. for 14 s. After amplification a melting curve analysis was performed. The qRT-PCR experiments were always run in triplicate.
# [2] = system: allotransplanted Lewis rat pancreatic islets; experiment: Rejection of allotransplanted pancreatic islets beneath the kidney capsule (blood glucose follow up); type: in vivo; details: Fischer 344 rats, 225 mg/kg intraperitoneal daily for 14 days starting 6-8 days after transplantation, FIG. 16
# Protocol: Pancreatic islets were isolated from the pancreas of Lewis rats by established technique. After culture at 37° C. over night, 500-1200 islets were implanted beneath the kidney capsule of adult (11-14 weeks old) Fischer 344 rats that were confirmed hyperglucemic (blood glucose >20 mMol/L) after having received a single dose of 35-40 mg/kg intraperitoneally of Streptozotocine, which is selectively toxic to the insulin producing beta cells present in the pancreatic islets. […] The two exceptional rats that maintained a normal blood sugar were subjected to nephrectomy 40 and 43 days after transplantation to check whether their normal blood glucose was a result of unexpected sustained survival of the grafted islets (in which case their blood sugar should promptly increase upon removal of the graft) or was due to a recovery of some Streptozotocine-damaged pancreatic islets (in which case their blood sugar should stay normal despite removal of the graft). […] Twenty two days after transplantation only 1/10 of the zebularine treated rats had rejected the graft as indicated by a normal blood sugar in all but this single rat at completion of the treatment 20-22 days after transplantation and in all of 7 analyzed >1 week after the zebularine treatment was stopped (FIG. 16).
# [3] = system: IDO1 expression in THP-1 cells; experiment: IDO1 expression in THP-1 cells by reverse transcriptase PCR (bands), kinetics; type: cell-based, human
# Protocol: as §1
# The sequences of forward primers and reverse primers for the human IDO-1 gene analyzed and the house-keeping gene HPRT respectively, were: IDO-1 forward: 5′-[…]-3′, reverse: 5′-C AGAC AAAT AT A TGCGAAGAAC; HPRT Forward: 5′-[…]-3′, HPRT Reverse: 5′-ACTAAGCAGATGGCCAC AGAA-3′. The PCR conditions were set as follows: 1 denaturing cycle at 94° C. for 2 min followed by 40 cycles (for the IDO-1) or 30 cycles (for the HPRT) at 94° C. for 15 s, 53° C. for 30 s, and 72° C. for 30 s with a final extension reaction at 72° C. for 5 min.
# Materials and methods used were the same as described in Example 1 above. […] In panel B, the THP-1 cells were given zebularine alone during 5 days and a weak band was detected. […] In panel C the THP-1 cells were exposed to zebularine for 6 days and interferon gamma was given during 24 hours after four days and the cells were harvested after a total of 6 days. […]
# [4] = IFN-g 100 iu/ml or IFN-A alone for 24 h (day 4), FIG. 11
# [5] = IFN-g 100 iu/ml or interferon A 25 ng/ml alone for 24 h (day 4), FIG. 12
Compound,IDO1 expression (relative value) [1],rats that had rejected the graft twenty two days after transplantation [2],"IDO1 expression after 168 h of culture [1, 4]","IDO1 expression after 168 h of culture [1, 5]","IDO1 expression (RT-PCR band), panel B ([3]; zebularine 5 days, interferon gamma after 3 days for 24 h, tested 24 hours after removal, FIG. 6B)","IDO1 expression (RT-PCR band), panel C ([3]; zebularine 6 days, interferon gamma 24 hours after four days, harvest after 6 days, FIG. 6C)","IDO1 expression (RT-PCR band), panel A ([3]; zebularine four days, interferon gamma added after 3 days, 24 hours before harvest, FIG. 6A)","course of IDO1 induction after the first 24 hours ([1]; interferon gamma 200 IU/ml initial 24 h, alone or with zebularine 100 uM for the entire period, harvest 48-96 h, FIG. 5)","IDO1 expression after 10, 12 or 14 days of culture ([1]; interferon gamma 200 iu/ml alone for 24 h on day 4, FIG. 10)","IDO1 induction after 24 hours ([1]; zebularine 100 uM or interferon gamma 200 IU/ml alone, harvest 24 h, FIG. 5)"
"O=c1ncccn1[C@@H]1O[C@H](CO)[C@@H](O)[C@H]1O [zebularine, reference compound]",9,1/10,–,–,–,–,–,–,–,–
interferon A,–,–,minimal,minimal,–,–,–,–,–,–
"interferon gamma: interferon gamma (Sigma), IDO inducer",80,–,minimal,minimal,weak band,almost no IDO1 induction,strong band,not sustained and dropped rapidly,minimal,strong
